The assay deals with Alpha-mannosidase (Canavalia ensiformis). The assay can be described thus: Inhibitory activity against Mannosidase in jack bean (Canavalia ensiformis).

As usually defined, the IC50 is the point on the concentration scale where inhibition reaches its midpoint. Consider `C[C@@H](O)[C@H]1NC[C@@H](O)[C@H]1O`, for which the IC50 is 600 nM.

For `OC[C@@H](O)[C@H]1NC[C@@H](O)[C@H]1O`, the IC50 turned out to be 500 nM.

The values above are taken from BindingDB's records for doi:10.1021/jm00129a011 (Csiro Division of Chemicals and Polymers, 1989).
